Source: US20020133846A1, “Method for protecting plants” (priority 1996, published 2002)
Where two headings read alike, the source gives them in different places.

What was measured:
Puccinia recondita = assay: Action against Puccinia recondita in wheat
Procedure: 7-day-old wheat plants were sprayed to drip point with a spray mixture prepared from a formulated active ingredient, or combination of active ingredients. After 4 days, the treated plants were infected with a conidia suspension of the fungus, and the treated plants were subsequently incubated for 2 days at a relative atmospheric humidity of 90-100% and 20 C. 10 days post-infection, the fungus infestation was assessed.

Erysiphe graminis [1] = assay: Action against Erysiphe graminis in wheat, field trials
Procedure: In field trials (10 m^2), winter wheat in the growth phase was sprayed with a spray mixture prepared with a wettable powder of the active ingredient. Infection was naturally. 10 days post-infection, the fungus infestation was assessed.

Mycosphaerella fijiensis = assay: Action against Mycosphaerella fijiensis in bananas; conditions: Table 23, comp. II alone 50 g a.i. per ha
Procedure: 40 banana plants in a 300 m^2 plot were sprayed at 17-19 day intervals with a spray mixture prepared with the wettable powder of the active ingredient; in total 6 times. Infection was naturally. For evaluation, the leaf infested with the fungus was measured.

[2] = test system: Peronospora parasitica NoCo2; assay: Action against Peronospora parasitica NoCo2 in Arabidopsis thaliana (Col-0), rRNA fungal probe; type: in vivo; conditions: Table 29, Col-0, metalaxyl alone 0.1 mg/l
[3] = test system: Pseudoperonospora cubensis; assay: Action against Pseudoperonospora cubensis in cucumbers; type: in vivo
[4] = test system: Peronospora parasitica Emwa; assay: Action against Peronospora parasitica Emwa in Arabidopsis thaliana (Ws), rRNA fungal probe; type: in vivo; conditions: Hyaloperonospora parasitica, in Arabidopsis thaliana, Table 30, Ws, read-out: Fungal Growth Inhibition % O (observed)
Phytophthora infestans = type: in vivo
[5] = test system: Peronospora parasitica isolate Emwa; assay: Action against Peronospora parasitica in Arabidopsis overexpressing NIM1 (lines 6E, 7C) and wild-type Ws; type: in vivo; conditions: Hyaloperonospora parasitica, in Arabidopsis thaliana, Table 36, wt Ws, read-out: Fungal Growth Inhibition % O (observed)
Source text: The plant lines used in this example (6E and 7C) were generated from transformation of wild-type Arabidopsis thaliana plants (ecotype Ws) with the BamHI-HindIII NIM1 genomic fragment (SEQ ID NO:1—bases 1249-5655), as described above in Example 21. The fungicides metalaxyl, fosetyl, and copper hydroxide, formulated as 25%, 80%, and 70% active ingredient (ai), respectively, with a wettable powder carrier, were applied as fine mist to leaves of three week-old transgenic Ws plants constitutively expressing the NIM1 gene. The wettable powder alone was applied as a control. Three days later, plants were inoculated with a Peronospora parasitica isolate Emwa conidial suspension (1-2×10^5 spores/ml), as described in Delaney et al. (1995). Following inoculation, plants were covered to maintain high humidity and were placed in a Percival growth chamber at 17° C. with a 14-hr day/10-hr night cycle (Uknes et al., 1993). Tissue was harvested 8 days after inoculation.
Fungal infection progression was followed for 12 days by viewing under a dissecting microscope to score development of conidiophores (Delaney, et al. (1994); Dietrich, et al. (1994)). Lactophenoltrypan blue staining of individual leaves was carried out to observe fungal growth within leaf tissue. Fungal growth was quantified using a rRNA fungal probe obtained by PCR according to White et al. (1990; PCR Protocols: A guide to Methods and Application, 315-322) using primers NS1 and NS2 and P. parasitica EmWa DNA as templates. RNA was purified from frozen tissue by phenol/chloroform extraction following lithium chloride precipitation (Lagrimini et al, 1987: PNAS, 84: 7542-7546). Samples (7.5 μg) were separated by electrophoresis through formaldehyde agarose gels and blotted to nylon membranes (Hybond-N+, Amersham) as described by Ausbel et al. (1987). Hybridizations and washing were according to Church and Gilbert (1984, PNAS, 81: 1991-1995). Relative amounts of the transcript were determined using a Phosphor Imager (Molecular Dynamics, Sunnyvale, Calif.) following manufacturers instructions. Sample loading was normalized by probing stripped filter blots with the constitutively expressed b-tubulin Arabidopsis cDNA.

[6] = test system: Peronospora parasitica NoCo2; assay: whole plant or invertebrate; type: in vivo; conditions: Hyaloperonospora parasitica, in Arabidopsis thaliana, read-out: Fungal Growth Inhibition % O (observed), Table 33, wt Col-0, metalaxyl 12.5 mg/l
Pyricularia oryzae = type: in vivo
[7] = test system: Colletotrichum lagenarium; assay: Action against Colletotrichum lagenarium on Cucumis sativus L., soil application; type: in vivo
[8] = test system: Colletotrichum lagenarium; assay: Action against Colletotrichum lagenarium on Cucumis sativus L., foliar application; type: in vivo
Cercospora nicotianae = assay: Action against Cercospora nicotianae on tobacco plants; type: in vivo
Erysiphe graminis [9] = assay: Action against Erysiphe graminis on barley (residual-protective / systemic)
Procedure: Residual-protective action: Barley plants about 8 cm in height were sprayed to drip point with an aqueous spray mixture (max. 0.02 % active ingredient) and were dusted 3 to 4 days later with conidia of the fungus. The infected plants were stood in a greenhouse at 22°. Fungus infestation was generally evaluated 10 days after infection.
Systemic action: Barley plants about 8 cm in height were watered with an aqueous spray mixture (max. 0.002 % active ingredient, based on the volume of the soil). […] The plants were dusted with conidia of the fungus 3 to 4 days later. The infected plants were stood in a greenhouse at 22°. Fungus infestation was generally evaluated 10 days after infection.

Peronospora tabacina = assay: Action against Peronospora tabacina on tobacco plants
Procedure: Tobacco plants (6 weeks old) were sprayed with a formulated solution of the test compound. Four days after treatment, the plants were inoculated with a sporangia suspension of the fungus, kept at high humidity for 4 to 5 days and then incubated further under a normal day/night sequence. Evaluation of the symptoms in the tests was based on the leaf surface infested with fungus. The infestation of the untreated plants corresponded to 0 % action.

Colletotrichum sp. = assay: Action against Colletotrichum sp. (anthracnose) on chili, field; type: in vivo; conditions: Table 16, chili fruits after fifth spraying, comp. II alone 100 ppm
Source text: Effects on crop yield: In a plot of land about 10 m^2 (test location: Cikampek, Java, Indonesia), chili plants were sprayed a total of 7 times at intervals of about 7 days with 500-700 liters of spray mixture per hectare. Three days after the first spraying, the plants were infected artificially with the fungus.

[10] = Action on crop yield of chili, field; type: in vivo; conditions: in vivo
Cercospora sp. = assay: Action against Cercospora sp. (leaf spot) on chili, field; type: in vivo; conditions: Table 17, leaves after sixth spraying, comp. II alone 100 ppm
Alternaria solani = assay: Action against Alternaria solani in tomatoes in the open
Procedure: Tomato plants on a 7 m^2 plot were sprayed at 7-day intervals with a spray mixture prepared wettable powder of the active ingredient; in total 9 times. Infection was naturally. For ion, the leaf infested with the fungus was measured.

CCCC1COC(Cn2cncn2)(c2ccc(Cl)cc2Cl)O1 (stereo not drawn) [propiconazole, 1-[2-(2,4-dichlorophenyl)-4-propyl-1,3-dioxolan-2-ylmethyl]-1H-1,2,4-triazole]
% action O (observed) (Puccinia recondita; Table 19, comp. II alone 5 mg a.i. per liter): 10%
% action O (observed) (Erysiphe graminis [1]; Table 21, comp. II alone 50 g a.i. per ha): 2%
% action O (observed) (Erysiphe graminis [1]; Table 21, comp. II alone 100 g a.i. per ha): 31%
% action O (observed) (Mycosphaerella fijiensis): 26%

COCC(=O)N(c1c(C)cccc1C)C(C)C(=O)OC (racemic) [metalaxyl]
inhibition at 0.1 µg/mL ([2]; Hyaloperonospora parasitica, in Arabidopsis thaliana, read-out: Fungal Growth Inhibition % O (observed)): 0%
Fungal Growth Inhibition % O (observed) [2]: no fungal growth inhibition
% action O (observed) ([3]; Table 27, comp. II alone 0.5 mg a.i. per liter): 31%
% action O (observed) ([3]; Table 27, comp. II alone 5 mg a.i. per liter): 66%
% action O (observed) ([3]; Table 27, comp. II alone 50 mg a.i. per liter): 91%
inhibition at 0.1 µg/mL ([4]; metalaxyl alone 0.1 mg/l): 50%
inhibition at 0.5 µg/mL ([4]; metalaxyl alone 0.5 mg/l): 50%
inhibition at 2.5 µg/mL ([4]; metalaxyl alone 2.5 mg/l): 75%
% action O (observed) (Phytophthora infestans; Table 25, comp. II alone 0.1 mg a.i. per liter): 13%
% action O (observed) (Phytophthora infestans; Table 25, comp. II alone 1 mg a.i. per liter): 23%
% action O (observed) (Phytophthora infestans; Table 25, comp. II alone 10 mg a.i. per liter): 35%
% action O (observed) (Phytophthora infestans; Table 25, comp. II alone 50 mg a.i. per liter): 68%
% action O (observed) (Phytophthora infestans; Table 26, comp. II alone 1 mg a.i. per liter): 13%
% action O (observed) (Phytophthora infestans; Table 26, comp. II alone 10 mg a.i. per liter): 33%
% action O (observed) (Phytophthora infestans; Table 26, comp. II alone 50 mg a.i. per liter): 63%
% action O (observed) (Phytophthora infestans; Table 26, comp. II alone 100 mg a.i. per liter): 83%
inhibition at 1.2 µg/mL ([5]; metalaxyl 0.0012 g/l): 27%
inhibition at 12.5 µg/mL ([5]; metalaxyl 0.0125 g/l): 59%
inhibition at 12.5 µg/mL [6]: 52.7%

O=C1CCc2cccc3c2N1CC3 [Compound IIJ, 1,2,5,6-tetrahydro-4H-pyrrolo[3,2,1-ij]quinolin-4-one]
% action O (observed) (Pyricularia oryzae; Table 14, comp. II alone 0.75 kg a.i. per ha): 46%
% action O (observed) (Pyricularia oryzae; Table 14, comp. II alone 1.5 kg a.i. per ha): 82%

O=C(O)c1cccc2nnsc12 [benzothiadiazole-7-carboxylic acid]
% action O (observed) ([3]; Table 27, comp. I alone 0.05 mg a.i. per liter): 0%
% action O (observed) ([3]; Table 27, comp. I alone 0.5 mg a.i. per liter): 6%
% action O (observed) ([3]; Table 27, comp. I alone 5 mg a.i. per liter): 66%
% action O (observed) ([7]; Table 5, comp. I alone 0.006 ppm): 0%
% action O (observed) ([7]; Table 5, comp. I alone 0.02 ppm): 40%
% action O (observed) ([7]; Table 5, comp. I alone 0.06 ppm): 49%
% action O (observed) ([7]; Table 5, comp. I alone 0.2 ppm): 91%
% action O (observed) ([8]; Table 4, comp. I alone 0.2 ppm): 5%
% action O (observed) ([8]; Table 4, comp. I alone 2 ppm): 22%
% action O (observed) ([8]; Table 6, comp. I alone 0.2 ppm): 3%
% action O (observed) ([8]; Table 6, comp. I alone 0.6 ppm): 51%
% action O (observed) ([8]; Table 7, comp. I alone 0.06 ppm): 16%
% action O (observed) ([8]; Table 7, comp. I alone 0.2 ppm): 22%
% action O (observed) ([8]; Table 7, comp. I alone 6 ppm): 60%
% action O (observed) (Cercospora nicotianae; Table 11, comp. I alone 0.2 kg a.i. per ha): 0%
% action O (observed) (Cercospora nicotianae; Table 11, comp. I alone 0.6 kg a.i. per ha): 3%
% action O (observed) (Cercospora nicotianae; Table 11, comp. I alone 2 kg a.i. per ha): 69%
% action O (observed) (Cercospora nicotianae; Table 11, comp. I alone 6 kg a.i. per ha): 79%
% action O (observed) (Cercospora nicotianae; Table 12, comp. I alone 2 kg a.i. per ha): 69%
% action O (observed) (Cercospora nicotianae; Table 12, comp. I alone 6 kg a.i. per ha): 79%
% action O (observed) (Cercospora nicotianae; Table 12, comp. I alone 20 kg a.i. per ha): 100%
% action O (observed) (Erysiphe graminis [9]; Table 1, comp. I alone 0.6 ppm): 0%
% action O (observed) (Erysiphe graminis [9]; Table 1, comp. I alone 2 ppm): 40%
% action O (observed) (Erysiphe graminis [9]; Table 1, comp. I alone 6 ppm): 89%
% action O (observed) (Erysiphe graminis [9]; Table 2, comp. I alone 0.6 ppm): 14%
% action O (observed) (Erysiphe graminis [9]; Table 2, comp. I alone 2 ppm): 27%
% action O (observed) (Phytophthora infestans; Table 26, comp. I alone 0.1 mg a.i. per liter): 0%
% action O (observed) (Phytophthora infestans; Table 26, comp. I alone 0.5 mg a.i. per liter): 9%
% action O (observed) (Phytophthora infestans; Table 26, comp. I alone 1 mg a.i. per liter): 22%
% action O (observed) (Phytophthora infestans; Table 26, comp. I alone 5 mg a.i. per liter): 45%
% action O (observed) (Puccinia recondita; Table 20, comp. I alone 6 kg a.i. per ha): 20%
% action O (observed) (Puccinia recondita; Table 20, comp. I alone 20 kg a.i. per ha): 40%

COc1ccc(C(=CC(=O)N2CCOCC2)c2ccc(Cl)cc2)cc1OC [dimethomorph, 4-[3-(4-chlorophenyl)-3-(3,4-dimethoxyphenyl)acryloyl]morpholine]
% action O (observed) (Peronospora tabacina; Table 28, comp. II alone 0.3 ppm): 52%
% action O (observed) (Peronospora tabacina; Table 28, comp. II alone 1 ppm): 52%

manganese ethylenebis(dithiocarbamate)polymer-zinc complex [mancozeb]
% action O (observed) (Colletotrichum sp.): 12%
Crop yield in kg per hectare O (observed) [10]: 8 kg per hectare
% action O (observed) (Cercospora sp.): 8%

Cc1cc(C2CC2)nc(Nc2ccccc2)n1 [cyprodinil, 4-cyclopropyl-6-methyl-N-phenyl-2-pyrimidinamine]
% action O (observed) (Alternaria solani; Table 24, comp. II alone 12.5 g a.i. per ha): 30%
% action O (observed) (Alternaria solani; Table 24, comp. II alone 25 g a.i. per ha): 51%
% action O (observed) (Erysiphe graminis [1]; Table 22, comp. II alone 50 g a.i. per ha): 2%
% action O (observed) (Erysiphe graminis [1]; Table 22, comp. II alone 100 g a.i. per ha): 31%
